These results are taken from PubChem BioAssay (NCI).

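96-well plates; 48 h exposure; 5 concentrations. Endpoints by linear interpolation between flanking doses. Not reached: highest tested concentration assigned. TGI: concentration producing complete growth inhibition.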 Where a SMILES comes first, the peptide text is derived from it. [ ]: non-standard residue; d: D form. The star is where a group is joined. Bn2Val = CC(C)[C@@H](C(=O)*)N(Cc1ccccc1)Cc1ccccc1; NH(3,4-diMeO-benzyl) = COc1ccc(CN*)cc1OC; NMeV = CN[C@H](C(=O)O)C(C)C

Test systems include A498 renal; DU-145 prostate; EKVX NSCLC; HOP-92 NSCLC; LOX IMVI melanoma; MDA-MB-435; MDA-N; NCI-H226 lung; OVCAR-3 ovarian; OVCAR-5 ovarian; SF-268 CNS; SK-MEL-5 melanoma; SNB-19 CNS; SNB-75 CNS; U251 CNS; UACC-257 melanoma; UACC-62 melanoma; IGROV1 ovarian; RPMI-8226 leukemia.
Test in all cases: DTP human tumour cell line panel, 48 h

For the molecule `O=C(c1cccs1)N(Cc1cccnc1)C(=S)N(Cc1cccnc1)C(=O)c1cccs1`, the TGI with A498 renal was 97.4 µM; in the assay with DU-145 prostate it was more than 100 µM; in the assay on EKVX NSCLC, more than 100 µM; in the assay with HOP-92 NSCLC, more than 100 µM; in the assay on LOX IMVI melanoma it was more than 100 µM; with MDA-MB-435, more than 100 µM. In addition, the total growth inhibition concentration (TGI) in the assay on MDA-N, in the assay with NCI-H226 lung, in the assay on OVCAR-3 ovarian, in the assay with OVCAR-5 ovarian, with SF-268 CNS and in the assay with SK-MEL-5 melanoma was more than 100 µM in each case. Further, the TGI in the assay with SNB-19 CNS, with SNB-75 CNS, in the assay on U251 CNS, in the assay on UACC-257 melanoma and in the assay with UACC-62 melanoma was more than 100 µM each time.
As for `CCn1c2ccccc2c2cc(NC(=O)c3c(NCCNCCO)nc(=O)[nH]c3C)ccc21`, the TGI in the assay on A498 renal, in the assay on DU-145 prostate, with EKVX NSCLC, in the assay on HOP-92 NSCLC, in the assay on IGROV1 ovarian and with LOX IMVI melanoma was more than 100 µM in each case. The TGI with MDA-MB-435, in the assay on MDA-N, in the assay with NCI-H226 lung, in the assay on OVCAR-3 ovarian, in the assay with OVCAR-5 ovarian and in the assay on SF-268 CNS was more than 100 µM each time. The TGI in the assay with SK-MEL-5 melanoma, with SNB-19 CNS, in the assay on SNB-75 CNS, with U251 CNS, in the assay with UACC-257 melanoma and in the assay with UACC-62 melanoma was more than 100 µM in each case.
As for `COc1ccc(CNC(=O)[C@@H]2CCCN2C(=O)[C@@H]2CCCN2C(=O)[C@H](C(C)C)N(C)C(=O)[C@@H](NC(=O)[C@H](C(C)C)N(Cc2ccccc2)Cc2ccccc2)C(C)C)cc1OC` (Bn2Val-V[NMeV]PP-{NH(3,4-diMeO-benzyl)}), the TGI in the assay on A498 renal is 31.6 µM; in the assay on DU-145 prostate it was 30.1 µM; with EKVX NSCLC, 26.7 µM; in the assay on HOP-92 NSCLC, 28.9 µM; in the assay with IGROV1 ovarian, 13.4 µM; with LOX IMVI melanoma, 16.4 µM. For the same molecule, the TGI in the assay with MDA-MB-435 was 39 µM; in the assay with MDA-N it was 30.5 µM; in the assay on NCI-H226 lung, 33.4 µM; in the assay with OVCAR-3 ovarian it was 27.6 µM; in the assay with OVCAR-5 ovarian, 34 µM; in the assay with SF-268 CNS, more than 48.1 µM. Moreover, the total growth inhibition concentration (TGI) in the assay on SK-MEL-5 melanoma came to 20.4 µM; with SNB-19 CNS it was 30.7 µM; with SNB-75 CNS, 25.7 µM; in the assay with U251 CNS, 45.7 µM; in the assay with UACC-257 melanoma it was 42.9 µM; in the assay with UACC-62 melanoma it was 29.7 µM.
For the molecule `CCOC(=O)c1ccc(N=c2oc3ccc(OC)cc3cc2-c2nc3ccccc3[nH]2)cc1`, the TGI in the assay on DU-145 prostate, in the assay with EKVX NSCLC, in the assay with HOP-92 NSCLC, in the assay on IGROV1 ovarian, in the assay on LOX IMVI melanoma and in the assay with MDA-MB-435 was more than 100 µM throughout. Also, the concentration for total growth inhibition (TGI) with MDA-N was more than 100 µM; in the assay on NCI-H226 lung, 8.58 µM; with OVCAR-3 ovarian, more than 100 µM; in the assay with OVCAR-5 ovarian, more than 100 µM; in the assay on RPMI-8226 leukemia, more than 100 µM; in the assay with SF-268 CNS, more than 100 µM. Besides, the TGI with SK-MEL-5 melanoma is 80.4 µM; with SNB-19 CNS, more than 100 µM; in the assay with SNB-75 CNS, 65.2 µM; in the assay with U251 CNS, more than 100 µM; in the assay on UACC-257 melanoma, more than 100 µM; in the assay on UACC-62 melanoma, more than 100 µM.
For `COC(=O)C1(C(=O)OC)CC2=C(S(=O)(=O)c3ccccc3)C[C@H](C#N)[C@H]2C1`, the total growth inhibition concentration (TGI) with A498 renal, with DU-145 prostate, in the assay on EKVX NSCLC, in the assay with HOP-92 NSCLC, with IGROV1 ovarian and in the assay on LOX IMVI melanoma was more than 100 µM throughout. Besides, the TGI in the assay with MDA-MB-435, with MDA-N, in the assay with NCI-H226 lung, in the assay on OVCAR-5 ovarian, in the assay on SF-268 CNS and in the assay on SK-MEL-5 melanoma was more than 100 µM each time. Further, the total growth inhibition concentration (TGI) in the assay with SNB-19 CNS, in the assay with SNB-75 CNS, with U251 CNS, in the assay with UACC-257 melanoma and with UACC-62 melanoma was more than 100 µM throughout.
Regarding `OC(CC(O)(C(F)(F)F)C(F)(F)F)C(O)c1ccco1` (stereo unspecified), the TGI in the assay with A498 renal, in the assay on DU-145 prostate, with EKVX NSCLC, with IGROV1 ovarian, in the assay with LOX IMVI melanoma and with MDA-MB-435 was more than 10 µM each time. Besides, the TGI with MDA-N, in the assay on NCI-H226 lung, in the assay with OVCAR-3 ovarian, with RPMI-8226 leukemia, in the assay on SF-268 CNS and with SK-MEL-5 melanoma was more than 10 µM in each case. The TGI in the assay with SNB-19 CNS, in the assay with SNB-75 CNS, in the assay with U251 CNS, in the assay with UACC-257 melanoma and in the assay on UACC-62 melanoma was more than 10 µM throughout.
Consider `O=C(O)c1ccc(NNC(=O)c2cccc3c(=O)c4ccccc4[nH]c23)cc1`, for which the TGI in the assay with DU-145 prostate, in the assay with EKVX NSCLC, in the assay on HOP-92 NSCLC, with IGROV1 ovarian, in the assay with LOX IMVI melanoma and with MDA-MB-435 was more than 100 µM each time. Further, the TGI in the assay with MDA-N, with NCI-H226 lung, in the assay with OVCAR-3 ovarian, in the assay on OVCAR-5 ovarian, with RPMI-8226 leukemia and in the assay on SF-268 CNS was more than 100 µM in each case. Further, the TGI with SK-MEL-5 melanoma, in the assay with SNB-19 CNS, in the assay on SNB-75 CNS, in the assay on U251 CNS, in the assay on UACC-257 melanoma and with UACC-62 melanoma was more than 100 µM each time.
As to `CCO/C=C(\C(=O)OC)S(=O)(=O)c1ccc(C)cc1`, the total growth inhibition concentration (TGI) with DU-145 prostate, in the assay on EKVX NSCLC, with HOP-92 NSCLC, in the assay with IGROV1 ovarian, with LOX IMVI melanoma and with MDA-MB-435 was more than 100 µM in each case. In addition, the TGI in the assay with MDA-N, in the assay with NCI-H226 lung, with OVCAR-3 ovarian, in the assay on OVCAR-5 ovarian, in the assay with RPMI-8226 leukemia and in the assay with SF-268 CNS was more than 100 µM in each case. Also, the TGI with SK-MEL-5 melanoma, with SNB-19 CNS, in the assay with SNB-75 CNS, in the assay with U251 CNS, in the assay with UACC-257 melanoma and in the assay with UACC-62 melanoma was more than 100 µM each time.

In general, TGI refers to the concentration at which net growth stops.
